Here are results for 90 molecules from a melting point compilation (Tetko et al.; mined from patent text by program, amines drawn as free bases though some values may be those of a salt).

Molecules are shown by their SMILES.

In turn, `CCCc1c(OCC(O)COc2ccc(CC(=O)O)cc2Br)ccc(C(C)=O)c1O` (stereo not given) came in with a melting point of 84 °C. Then `O=C(NCCO)c1csc(-c2cccc([N+](=O)[O-])c2)n1`, with 145 to 146 °C; and `Cc1cccc(NC(=O)CC23CC4CC(CC(C4)C2)C3)c1C`, with 170 °C. In the case of `Cn1c(=O)c2c(ncn2CC(O)Cc2noc(CCN3CCCCC3)n2)n(C)c1=O` (stereo not given) it was 110 to 111 °C.

On to `CCCCOCCOc1ccc(-c2ccc(N3CCC4(C3)OCCO4)c(C=C(C)C(=O)O)c2)cc1`, for which the melting point lay within 130 to 132 °C. Turning to `COC(=O)c1c(C)[nH]c(=S)n1Nc1cccc(Cl)c1`, the melting point was in the range of 194 to 196 °C.

For the molecule `CCC(C)(C)c1cc(-c2cccc(C=C3SC(N4CCCC4)=NC3=O)c2)ccc1O`, the melting point was in the range of 282 to 283 °C.

As to `CCOC(=O)c1cnc2ccc(Cl)nn2c1=O`, the melting point lay in the range of 149 to 152 °C. In the case of `CNC(=O)ON=C1SCC(=O)N1C(C)C` it was 94 to 96 °C; in that of `O=C(c1ccncc1)c1cc(-c2cccnc2)c(N2CCOCC2)s1`, 128 °C; in that of `C[C@@H](SC(CO)CO)[C@](O)(Cn1cncn1)c1ccccc1F`, 121 to 123 °C. Then `CCOC(=O)c1c(CC(C)C)nc2c(C(F)(F)F)cccc2c1O`, with 100 °C.

`COc1cc2ncc(C(=O)O)c(Nc3cccc(Br)c3)c2cc1OC` came in with a melting point of 282 to 285 °C. Then `O=C1OCC2=C1C(c1ccccc1Cl)c1c[nH]nc1N2` (stereo not given), with more than 270 °C; and `FC(F)(F)c1ccc(-c2cc(Oc3ccc4cccnc4c3)ncn2)c(Br)c1`, with 185 to 187 °C; and `COc1ccc2c(c1)C(C(=O)O)c1cccnc1CO2` (stereo not given), with 140 to 141 °C. In the case of `CCCCCCCCCCCCOc1ccc(-c2ccc(CCCCC(=O)OCC)cc2)cc1` it was 99 °C. In the case of `CCCc1nn(C)c2c(=O)n(CCOc3ccc(NC(C)C(=O)OCC)cc3)c(CC)nc12` (stereo not given) it was 100 to 104 °C; in that of `N#Cc1ccc(C(=O)NC(=S)NC2CC2)cc1`, 151 to 152 °C; in that of `CN1CCN(C2=Nc3ccccc3Sc3ccccc32)C[C@@H]1CCc1ccccc1`, 44 to 54 °C. `CC(=O)Oc1cccc2c(-c3cccs3)c3cccc(OC(C)=O)c3c(OC(C)=O)c12`: the melting point was determined as 260 °C. With `Oc1ccc(C2=CCCCC2)cc1`, the melting point lay in the range of 115 to 119 °C. `CCC(C)(C)c1cc(-c2ccc(C=C3SC(N4CCOCC4)=NC3=O)s2)ccc1O` registered a melting point of 322 to 323 °C. Then `c1cncc(-c2nc(COc3ccc(CCCn4ccnc4)cc3)cs2)c1`, with 67 to 68 °C; and `CCOC(=O)C1=C(C)NC(C)=C(C(=O)OC)C1c1cccc(NC(C)=O)c1` (stereo not given), with 197 to 199 °C; and `O=C1Nc2ccccc2C1CCCCN1CCN(c2cccc(Cl)c2)CC1` (stereo not given), with 112 to 114 °C. On to `O=S1(=O)CC(=Cc2ccc(Cl)cc2)C2=NN(c3ccccc3)C(c3ccc(Cl)cc3)C2C1` (stereo not given), for which the melting point is 246 to 249 °C.

The molecule `CC(C)(C)OC(=O)NCCNC(=O)c1ccc(Br)cn1` showed a melting point of 118 °C. `COC(=O)c1ccc(OCc2ccc(Cl)cc2)cc1O`: the melting point lay in the range of 119 to 121 °C. In the case of `CCC1(CCOC2CCCCO2)C(=O)NNC1=O` (stereo not given) it was 188 to 191 °C; in that of `O=[N+]([O-])c1ccc(Cl)cc1Sc1cccc2cnccc12`, 151 to 153 °C. In the case of `Cc1cc2[nH]c(CC(C)(C)N3C(=O)c4ccccc4C3=O)nn2n1` it was 197 to 199 °C; in that of `O=NSC1(C2OCCCO2)CCCCC1`, 34 to 36 °C; in that of `O=C(O)c1ccccc1-c1nnc(-c2ccccc2)s1`, 178 to 180 °C.

For `CCOC(=O)C1OC1C(=O)N(C)C1CCCCC1` (stereo not given), the melting point was 52 to 55 °C.

`COc1cc(C)ccc1-c1nc(C)c(-c2cccnc2)n1O` returned a melting point of 75 to 80 °C.

In turn, `CS(=O)(=O)c1ccc(-c2sc(COc3cc(Cl)cc(Cl)c3)nc2-c2ccc(F)cc2)cc1` had a melting point of 171 to 173 °C.

As to `CCc1nn(CCO)c(CC)c1Oc1cc(F)cc(-n2cccn2)c1`, the melting point lay in the range of 120 to 122 °C. Then `CC(C)(C)OC(=O)NCC1=CC(c2ccccc2)Cc2c1ccc(OC(=O)C(C)(C)C)c2OC(=O)C(C)(C)C` (stereo not given), with 64 to 69 °C.

`CCCOc1cc(-c2ccc3cc4c(cc3c2)C(C)(C)CCC4(C)C)ccc1C(=O)O` came in with a melting point of 137 to 138 °C.

For the molecule `CCCCCCCCCCCCCCCCNC(=O)c1cccnc1`, the melting point was in the range of 85 to 87 °C. `CC(=O)Nc1c(C(=O)c2ccc(Cl)cc2)[nH]c2cc(Cl)ccc12`: the melting point lay within 175 to 176 °C. Then `C#Cc1cccc(Nc2ncnc3cc(OCCOC)c(OCCOC(C)=O)cc23)c1`, with 84 to 87 °C. As for `CC(Nc1ccccc1)c1ccc(C(C)Nc2ccccc2)cc1` (stereo not given), the melting point lay in the range of 169 to 170 °C.

Turning to `O=[N+]([O-])c1ccc(C=CC=CC=CC=Cc2ccc([N+](=O)[O-])cc2)cc1`, the melting point lay within 238 to 240 °C. In the case of `CCN(CC)C(=O)n1cnc(S(=O)(=O)CC2CC2)n1` it was 68 to 74 °C. Turning to `COc1c(C#N)c(C#N)c(OC)c2ccccc12`, the melting point was 190 °C.

As for `CCOC(=O)COc1ccc(NS(C)(=O)=O)cc1C`, the melting point lay in the range of 83 to 84 °C. `COc1cc(-c2ccc(C#N)cc2)c2nc(-c3ccc(OC)c(F)c3)cc(O)c2c1`: the melting point is 248 to 250 °C. In the case of `COc1ccc(C(=O)O)cc1NC(=O)c1cc(C(C)(C)C)c(O)c(C(C)(C)C)c1`, the melting point was in the range of 259 to 261 °C. Then `COC1CCN(S(=O)(=O)c2ccc(S(N)(=O)=O)cc2)CC1`, with 153 to 154 °C.

As to `CCCc1nc(C#N)c(C#N)nc1Oc1ccccc1`, the melting point lay in the range of 130 to 132 °C. For the molecule `COc1ccc2cc(C=O)oc2c1`, the melting point is 75 to 77 °C. In the case of `O=C(NC(CCC(=O)N1CCCC1C(=O)O)C(=O)O)c1ccccc1` (stereo not given) it was 102 to 104 °C. Molecule `NS(=O)(=O)c1cc2[nH]c(S)nc2cc1Cl` showed a melting point of 341 to 343 °C. Then `CNC(=O)N(C)C1=NN(C(=O)C(C)(C)C)C(C)S1` (stereo not given), with 168 to 169 °C. For the molecule `COc1ccc(C(=O)C(NCCc2ccc(OC)c(OC)c2Cl)SC)cc1` (stereo not given), the melting point is 75 to 78 °C. As to `O=[N+]([O-])c1cccc(Oc2cccc(-c3nnc(Nc4ccc(Cl)c(Cl)c4)s3)c2)c1`, the melting point was 210 to 212 °C. Molecule `ClCCOc1c2ccccc2c(OCCCl)c2ccccc12` displayed a melting point of 143 to 145 °C. `CCN=C(N)N(CC)N=C(C=Cc1ccc(OC(F)F)cc1)C=Cc1ccc(OC(F)F)cc1` showed a melting point of 97 to 99 °C. In the case of `CC(=NO)c1ccccc1NC(C(N)=O)c1c(Cl)cccc1Cl` (stereo not given) it was 115 °C. Then `N=C(NS(=O)(=O)C=Cc1ccc([N+](=O)[O-])cc1)c1ccc([N+](=O)[O-])cc1`, with 173 to 177 °C; and `Fc1ccc(Nc2ncnc3ccc(-n4cncn4)cc23)c(F)c1`, with more than 250 °C. Then `Cc1nn(-c2c(Cl)cc(C(F)(F)F)cc2Cl)nc1C#N`, with 53 °C. Take `CCC1Cc2cc(OC(C)(C)C(=O)O)c(Cl)c(Cl)c2C1=O` (stereo not given): the melting point was in the range of 165 to 166 °C.

Consider `COc1ccc2cc([C@H](C)C(=O)OCC(C)(O[N+](=O)[O-])O[N+](=O)[O-])ccc2c1`, for which the melting point is 67 to 68 °C.

As to `CC(C)Nc1cccnc1N1CCN(C(=O)c2ccc(C(=O)NC(C)(C)C)cn2)CC1`, the melting point is 161 to 162 °C. `O=C(O)C1CCc2c(Cc3ccc(Cl)cc3)cccc21` (stereo not given) returned a melting point of 127 to 129 °C. The molecule `COC(=O)c1nn(C2CCCCO2)cc1NC(=O)c1cccc(C)n1` (stereo not given) yielded a melting point of 100 to 102 °C. In the case of `C=CCC(NC(C)=O)C(=O)NCc1ccccc1` (stereo not given) it was 118 to 120 °C; in that of `CCn1nnnc1C(CO)=C(c1ccc(F)cc1)c1ccc(F)cc1`, 103 to 111 °C. In the case of `CC1CN(c2ccccn2)CCN1Cc1nc2ccccc2[nH]1` (stereo not given), the melting point lay within 151 to 153 °C. In the case of `O=C(Cc1ccccc1)NCO` it was 78 °C; in that of `OCCNc1ncc(CN2CCN(c3ccccc3)CC2)c2nc(-c3ccco3)nn12`, 169 °C; in that of `CCOC(=O)C(=O)C1Cc2ccc(NS(=O)(=O)c3ccc(C)cc3)cc2C1=O` (stereo not given), 202 to 204 °C. As for `CC1(C)CCC(C)(C)c2cc(-c3cc(-c4ccc(CN)cc4)on3)ccc21`, the melting point is 138 to 143 °C. In the case of `COC1C(O)C(CO)OC1n1ccc(N)nc1=O` (stereo not given) it was 252 to 254 °C; in that of `CCOC(=O)c1cccc(NC(=O)N2CCC(CNC[C@H](O)COc3cccc4[nH]c5ccccc5c34)CC2)c1`, 160 °C. Molecule `CCCc1c(OCCCCCC(=O)NCCCCc2ccccn2)ccc(C(C)=O)c1O` showed a melting point of 63 to 66 °C.

As to `O=C(O)C1=Cc2cccc(F)c2OC1C(F)(F)F` (stereo not given), the melting point lay in the range of 198 to 210 °C. In the case of `CC(=O)c1ccc2c(C(=O)c3ccc(OCCN4CCCCC4)cc3)c(-c3ccc(O)cc3)sc2c1` it was 97 to 100 °C. `CCC(/C=C(\OC)C(=O)OC)=C\c1cc2ccccc2[nH]1` had a melting point of 93 to 95 °C.

In turn, `CCCCOC(=O)COc1ccc(C(=O)N(C)c2ccccc2Sc2ccccc2-c2nnn[nH]2)cc1` had a melting point of 148 to 150 °C. Take `CCC(=O)c1ccc(CCNS(=O)(=O)c2ccc(OC)cc2)cc1`: the melting point stood at 107 °C. `CCCn1cc2c(C3C(=O)Nc4ccc(Br)cc43)nc(NCCN3CCOCC3)nc2n1` (stereo not given): the melting point lay within 299 to 303 °C. In the case of `CCOC(=O)c1oc2ccc(Cl)cc2c1CBr` it was 112 to 114 °C; in that of `CN1C(=O)N(C)C(=O)C(C(N)=O)(c2ccc(Cl)cc2)C1=O`, 225 to 227 °C.

Regarding `O=C(CCOc1ccc(Cl)cc1)NCCCn1ccnc1`, the melting point was in the range of 114 to 116 °C. In the case of `Cc1cc2cc(CN3CCCC3)cnc2cc1NC(=O)c1ccc(-c2ccco2)cc1` it was 154 °C. In the case of `Cc1ccc(S(=O)(=O)N(C)NC(=O)c2c(F)cccc2Cl)cc1` it was 135 to 136 °C.
